Consider four compounds from publication PMC7151106 (Pharmaceutics, 2020).

A value given as a limit tells only on which side of the number the result lay.

One data set concerns the target T1, SGLT1 (Homo sapiens, UniProt P13866).
T1 construct: host or cells: CHO
T1 sequence (P13866 1-664): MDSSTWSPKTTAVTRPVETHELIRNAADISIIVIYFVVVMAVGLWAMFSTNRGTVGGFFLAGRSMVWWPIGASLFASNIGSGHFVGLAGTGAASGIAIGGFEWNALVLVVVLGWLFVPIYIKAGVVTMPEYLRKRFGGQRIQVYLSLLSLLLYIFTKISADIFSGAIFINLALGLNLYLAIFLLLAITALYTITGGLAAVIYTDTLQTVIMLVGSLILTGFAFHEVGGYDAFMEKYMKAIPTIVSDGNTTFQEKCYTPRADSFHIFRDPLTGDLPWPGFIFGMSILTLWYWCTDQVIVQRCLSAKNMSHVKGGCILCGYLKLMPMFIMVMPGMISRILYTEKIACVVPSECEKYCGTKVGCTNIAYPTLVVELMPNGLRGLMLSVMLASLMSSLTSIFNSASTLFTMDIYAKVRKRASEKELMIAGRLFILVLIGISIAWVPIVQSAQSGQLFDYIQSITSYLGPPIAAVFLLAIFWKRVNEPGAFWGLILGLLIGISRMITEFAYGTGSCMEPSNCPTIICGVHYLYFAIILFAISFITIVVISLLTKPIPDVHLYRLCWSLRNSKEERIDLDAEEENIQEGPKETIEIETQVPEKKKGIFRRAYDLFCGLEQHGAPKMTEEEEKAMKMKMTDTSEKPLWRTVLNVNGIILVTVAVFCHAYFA
The data set is described as follows: Inhibition of [14C]AMG uptake in CHO-SGLT1 cells. Format: cell-based. To be noted: 10 μM [14C]AMG, 2 h. Here is the method:
CHO cells overexpressing SGLT1 and SGLT2 cells (CHO-SGLT1 and -SGLT2) and CHO-mock cells were characterized as previously described. Cells were maintained in RPMI1640 medium supplemented with 10% fetal bovine serum and 200 µg/mL G418 at 37 °C in 5% CO2 conditions. CHO-SGLT1 and -SGLT2 cells were seeded at a density of 1 × 10^5 cells/well in 96-well plates. After 24 h, the growth medium was discarded from the cells, and the cells were washed with pre-warmed Na^+-free buffer (10 mM HEPES, 5 mM Tris, 140 mM choline chloride, 2 mM KCl, 1 mM CaCl2, 1 mM MgCl2, pH7.4) and incubated for 1 h in Na^+-free buffer. After replacing Na^+-free buffer with Na^+ gradient buffer (10 mM HEPES, 5 mM Tris, 140 mM NaCl, 2 mM KCl, 1 mM CaCl2, 1 mM MgCl2, pH7.4) containing 10 µM [^14C]AMG, the uptake of [^14C]AMG into the CHO-mock cells and CHO-SGLT1 and -SLGT2 cells was measured for 0.5, 1, 1.5, 2, and 3 h. After a predetermined incubation time, cells were washed three times with 200 µL of ice-cold Na^+-free buffer immediately after placing the plates on ice. Then, the cells were lysed with 10% SDS, and the cell lysates were mixed with Optiphase cocktail solution. Thereafter, the radioactivity of the cell lysates was measured using a liquid scintillation counter.
After 2 h, cells were washed three times with 200 µL of ice-cold Na^+-free buffer and the cells were lysed with 10% SDS (40 µL), followed by adding Optiphase cocktail solution (200 µL). The radioactivity of the cell lysates was measured using a liquid scintillation counter. The SGLT1 or SGLT2-mediated uptake of [^14C]AMG was calculated by the subtraction of the uptake rates of [^14C]AMG into the mock cells from those of the CHO-SGLT1 and -SLGT2 cells. In the inhibition studies, the percentages of the transport rate of AMG with or without SGLT2 inhibitors were calculated and the data were fitted to an inhibitory effect model. The IC50 (the concentration of the inhibitor to show half-maximal inhibition) values were calculated using Sigma Plot ver.10.0 (Systat Software, Inc.; San Jose, CA, USA).

In data set [1] the target is T2, SGLT2 (Homo sapiens, UniProt P31639).
T2 construct: host or cells: CHO
T2 sequence (P31639 1-672): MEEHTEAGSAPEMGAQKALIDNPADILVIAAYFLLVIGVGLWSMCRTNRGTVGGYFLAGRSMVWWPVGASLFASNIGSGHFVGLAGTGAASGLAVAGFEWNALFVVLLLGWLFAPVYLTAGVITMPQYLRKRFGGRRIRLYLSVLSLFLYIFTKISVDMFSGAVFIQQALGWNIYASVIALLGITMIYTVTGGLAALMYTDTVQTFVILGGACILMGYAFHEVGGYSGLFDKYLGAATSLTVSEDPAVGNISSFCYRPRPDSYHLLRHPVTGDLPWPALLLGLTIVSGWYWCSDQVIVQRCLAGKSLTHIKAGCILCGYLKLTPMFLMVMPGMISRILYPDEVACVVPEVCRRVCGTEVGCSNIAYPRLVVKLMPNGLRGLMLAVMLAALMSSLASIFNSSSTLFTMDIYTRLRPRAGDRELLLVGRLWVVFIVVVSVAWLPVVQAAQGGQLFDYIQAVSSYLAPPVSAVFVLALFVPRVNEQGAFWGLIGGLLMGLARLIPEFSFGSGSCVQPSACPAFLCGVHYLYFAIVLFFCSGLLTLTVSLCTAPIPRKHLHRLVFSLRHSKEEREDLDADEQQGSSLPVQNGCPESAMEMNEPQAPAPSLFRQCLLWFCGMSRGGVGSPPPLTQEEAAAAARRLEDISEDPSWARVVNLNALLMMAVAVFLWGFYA
The data set is described as follows: Time dependency of SGLT2 inhibition (preincubation) in CHO-SGLT2 cells. Format: cell-based. The following applies: pretreatment 0, 1, 2 h. Here is the method: After 2 h of incubation, the radioactivity of the cell lysate was measured following the same sample preparation method described above.

The conditions of data set [2]: mouse, in vivo, po, 1 mg/kg.
Description: (§5) An aliquot (30 µL) of each plasma sample was stored at −80 °C until the analysis. […] An aliquot (50 µL) of each kidney homogenate sample was stored at −80 °C until the analysis.
(§6) For the analysis of SGLT2 inhibitors, aliquots of plasma (30 µL) and kidney homogenate (50 µL) were added to 100 μL of aqueous solution of D4-DWP16001 (IS, 20 ng/mL), and vigorously mixed with 500 μL methyl tert-butyl ether (MTBE) for 15 min. After centrifugation at 16,000 g for 5 min, samples were kept for 1 h at −80 °C to make an aqueous layer freeze. An organic upper layer was transferred to a clean tube and evaporated to dryness under a gentle stream of nitrogen. Then, the dried extract was reconstituted in 150 µL of mobile phase, and a 3 µL aliquot of the reconstituent was injected into a liquid chromatography–tandem mass spectrometry (LC–MS/MS) system.
(§7) Pharmacokinetic parameters, such as the area under plasma concentration-time curve from zero to infinity (AUC), were calculated from plasma concentration vs time curves using non-compartment analysis with WinNonlin (version 5.1; Pharsights, Cary, NC, USA). The AUC ratios (i.e., ratios of kidney AUC to plasma AUC) were calculated by dividing the AUC of the three SGLT2 inhibitors in the kidney by the plasma AUC values of the three SGLT2 inhibitors.
For data set [3], the target named is T2, SGLT2. The data set is described as follows: Recovery of SGLT2 activity after washout following 24 h exposure in CHO-SGLT2 cells. The class given is cell-based. To be noted: 0.2–200 nM. Here is the method:
After 24 h, the RPMI1640 medium was replaced with pre-warmed fresh RPMI1640 medium and incubated for 1, 2, 3, 5, and 6 h, and proceeded another pre-incubation with Na^+-free buffer for 1 h. Then, after replacing Na^+-free buffer with Na^+ gradient buffer containing 10 µM [^14C]AMG, the uptake of [^14C]AMG into the CHO-SGLT2 cells was measured for 2 h. After 2 h of incubation, the radioactivity of the cell lysate was measured following the same sample preparation method described above.

A further data set is described as follows: in vivo. The following applies: ICR, mouse, po, 1 mg/kg.
The next data set concerns T3, OAT1.
T3 construct: host or cells: HEK293
Description: Substrate specificity / uptake in HEK293-OAT1 cells. Format: in vitro ADME. To be noted: 5 min. Here is the method: (§1) HEK293-mock cells and HEK293 cells overexpressing OAT1 and OAT3 transporters (HEK293-OAT1 and -OAT3, respectively) were seeded in poly-D-lysine-coated 24-well plates at a density of 4 × 10^5 cells/well and cultured for 24 h in DMEM supplemented with 10% FBS and 5 mM non-essential amino acids at 37 °C in 8% CO2 condition.
(§2) For each experiment, the growth medium was discarded after 24 h, and the attached cells were washed with pre-warmed HBSS and incubated with pre-warmed HBSS for 20 min at 37 °C. To confirm the functionality of OAT1 and OAT3, we measured the uptake of 0.1 µM [^3H]PAH and 0.1 µM [^3H]ES, representative substrates for OAT1 and OAT3, respectively, into in the HEK293-mock cells and HEK293-OAT1 and -OAT3 cells, respectively, for 5 min in the presence and absence of 20 µM probenecid, a typical inhibitor for both OAT1 and OAT3 [8, 9]. The cells were then washed three times with 500 μL of ice-cold HBSS immediately after placing the plates on ice. Subsequently, cells were lysed with 10% sodium dodecyl sulfate and mixed with Optiphase cocktail solution overnight. The radioactivity of the cell lysate was measured using a liquid scintillation counter (Microbeta 2; Perkin Elmer Inc., Boston, MA, USA).
(§3) For the concentration dependency in the uptake of DWP16001, the uptake of DWP16001 in a concentration range of 0.5–50 μM dissolved in HBSS was measured for 5 min at 37 °C in the mock cells and HEK293-OAT1 and -OAT3 cells, respectively. After 5 min, the cells were washed three times with 500 μL of ice-cold HBSS immediately after placing the plates on ice.
(§4) In the concentration-dependent uptake studies, the transporter-mediated uptake of DWP16001 was calculated by the subtraction of the transport rates of DWP16001 into the mock cells from those of the HEK293-OAT1 and -OAT3 cells. Kinetic parameters for the OAT1- and OAT3-mediated transport of DWP16001 were determined using the Michaelis-Menten equation [V = Vmax⋅S/(Km + S)] [10].

The next data set relates to T4, OAT3.
T4 construct: host or cells: HEK293
The data set is described as follows: Substrate specificity / uptake in HEK293-OAT3 cells. The class given is in vitro ADME. The following applies: 5 min. On the procedure: as §1, §2, §3, §4

Details of data set [4]: method as in PMID 27430987. To be noted: cited from earlier work.
Data set [5] has as its target T2, SGLT2. The data set is described as follows: Mode of inhibition on SGLT2 (Dixon plots) in CHO-SGLT2 cells. The following applies: 1, 2.5, 5, 50 μM [14C]AMG. The class given is cell-based. On the procedure: The radioactivity of the cell lysate was measured following the same sample preparation method described above.

Description for in vivo: as §5, §6, §7

Consider `CO[C@H]1O[C@H](CO)[C@@H](O)[C@H](O)[C@H]1O` [AMG, methyl a-D-glucopyranoside], for which the “AMG uptake into CHO-SGLT1 cells relative to CHO-mock cells” value on SGLT1 turned out to be 42 fold.

`CCOc1ccc(Cc2cc([C@@H]3O[C@H](CO)[C@@H](O)[C@H](O)[C@H]3O)ccc2Cl)cc1` [Dapagliflozin, dapagliflozin]: the “Time dependency of SGLT2 inhibition” value on SGLT2 [1] was “time-independent”. This compound showed an AUC72h in data set [2] of 26.30 ± 3.34 μg∙h/g tissue. In addition, the “Time after drug removal to recovery of SGLT2 activity to the control level” value at SGLT2 [3] was determined as 4 h. In “in vivo”, the AUC(0-inf) (usually total exposure, with the tail of the curve extrapolated) was 550 ± 144000 ng·h/mL; the AUC(0-t) (commonly the area under the concentration-time curve up to a stated or last time point) was determined as 480 ± 180 ng·h/mL; the Cmax (usually the maximum level reached in the sampled fluid or tissue) was determined as 275 ± 144 ng/mL; the Kp stood at 64.6 ± 31.8. The “Substrate for OAT1” value in the data set on OAT1 (2 μM, HEK293-OAT1 vs mock, ± 20 μM probenecid) was “not substrates”. The “Substrate for OAT3” value with OAT3 (2 μM, HEK293-OAT3 vs mock, ± 20 μM probenecid) was “not substrates”. For the same compound, in data set [4], the “Duration of increased urinary glucose excretion post dose” value was ≥ 18 h. In addition, the “Mode of inhibition on SGLT2” value on SGLT2 [5] is “reversible and competitive”. The log partition coefficient (logP) (commonly a log measure of how a compound divides between an organic and an aqueous phase) in the data set “physchem” is 2.27.

For the compound `C[C@]12CC[C@@H]3c4ccc(OS(=O)(=O)O)cc4CC[C@H]3[C@@H]1CCC2=O` [ES, Estrone-3-sulfate], the “Increase in probe substrate uptake in HEK293-OAT3 vs HEK293-mock cells” value in the data set on OAT3 (0.1 μM [3H]ES) amounted to 16.4 fold.

On to `Nc1ccc(C(=O)NCC(=O)O)cc1` [PAH, Para-aminohipuric acid], for which the “Increase in probe substrate uptake in HEK293-OAT1 vs HEK293-mock cells” value in the data set with OAT1 (0.1 μM [3H]PAH) is given as 14.7 fold.
